{"source": "patent US10226041B2", "about": "“Compositions and methods for improving the quality of processed sperm” (Inguran, LLC, priority 2011, dated 2019)", "key": {"sex-sorted sperm cells": {"system": "sex-sorted sperm cells", "assay": "CASA post-thaw motility of sex sorted bull sperm treated with OSR", "format": "cell-based, bovine", "details": "3 hr; 1 step-stain (+−−); Bull C (Jersey), Trial 2"}, "[1]": {"system": "slaughterhouse oocytes fertilized with sex sorted sperm", "assay": "IVF: development of eggs fertilized with OSR treated sex sorted sperm", "format": "cell-based, bovine", "details": "3 step", "method": "1. Oocyte Collection. Collect slaughterhouse oocytes, wash 1× with about 3 mL Hepes washing media and with 1× with TCM-199 (Invitrogen, Carlsbad, Calif.)+10% Fetal Bovine Serum (FBS). Culture in maturation media for 22 hrs in a CO2 incubator at 38.5° C. In one embodiment, the maturation media contains TCM-199, FBS, pyruvate, chorionic gonadotropin (e.g., Chorulon (Intervet, Summit N.J.)), follicle stimulating hormone (FSH) (e.g., Folltropin (Bioniche, Belleville, Canada)), estradiol, and at least one antibiotic. In a further embodiment, Amikacin (Sigma-Aldrich, St. Louis, Mo.) can be used as the antibiotic. In another embodiment, the maturation media may also comprise luteinizing hormone.\n2. In Vitro Fertilization. Trim away cumulus cells from matured oocytes. Transfer them to a fertilization dish and return to the CO2 incubator. Thaw frozen semen straws using standard procedures, centrifuge in […], of Pure Sperm gradient (Nidacon, Molndal, Sweden), or a percoll or similar gradient at 2500 RPM for 10 minutes to remove egg components, glycerol and other debris. Remove supernatant, leaving a loose pellet of live sperm. Combine pellets using a small amount of fertilization media and repellet at 1500 RPM for 3 minutes. Carefully remove supernatant. Then gently mix the pellet. After determining the desired insemination dose, inseminate the oocytes by adding sperm to the pellet, then culture in a dish and return to the CO2 incubator for about 18-22 hours.\n3. In Vitro Culture. Remove presumptive zygotes from the fertilization dish and transfer into a sterile 1.5 mL eppendorf tube. Allow zygotes to form a loose pellet and remove excess media to form a 1:1 ratio of pellet and solution. Rinse the eppendorf tube with TCM-199, place contents into a dish and wash with BSA media. Then culture presumptive zygotes (discard disfigured oocytes, as well as oocytes with yellow colored cytoplasm or vacuolated cytoplasm) in a dual gas incubator (5% CO2, 5% O2) at 38.5° C. for about 48 hours.\n4. Co-Culture. Transfer cleaved zygotes to co-culture dishes comprising the cumulus cells from the mature oocytes and FBS media topped with mineral oil, and incubate in a CO2 incubator at 38.5° C. until needed.\nAn experiment was designed to test the effect of OSR treated sperm cells on the development of eggs fertilized with those sperm cells. In this experiment, bull semen from two bulls was sex sorted with flow cytometry, with vitamin B12 present at equal concentrations in the media used to stain the sperm cells, in the catch fluid of the collecting vessel and in the cryoprotectant extender prior to freezing the sex sorted sample (3 step). For each bull, three different concentrations of vitamin B12 were tested: 0.05 mg/ml, 0.15 mg/ml and 0.25 mg/ml. The control samples were not treated with vitamin B12.\nSlaughterhouse oocytes were collected and washed 1× with about 3 mL Hepes washing media and with 1× with TCM-199+10% FBS. The oocytes were then cultured in maturation media for 22 hrs in a CO2 incubator at 38.5° C. Cumulus cells were trimmed away from matured oocytes, transferred to a fertilization dish, and returned to the CO2 incubator.\nFrozen semen straws were thawed using standard procedures and centrifuged in […], of Pure Sperm gradient at 2500 RPM for 10 minutes in order to remove egg, glycerol and other debris. The supernatant was removed, leaving a loose pellet of live sperm. Pellets were combined using a small amount of fertilization media and repelleted at 1500 RPM for 3 minutes. The supernatant was then carefully removed and the pellet gently mixed. After determining the desired insemination dose, the matured oocytes were then inseminated by adding sperm to the pellet, cultured in a dish and returned to the CO2 incubator for about 18-22 hours.\nPresumptive zygotes were removed from the fertilization dish and transferred into a sterile 1.5 ml eppendorf tube. […]"}, "[2]": {"details": "0.05 mg/ml, Table 4 replicates, Bulls A, B"}, "[3]": {"details": "0.5 mg/ml, Table 5 Total/Avg per bull (A Holstein, B Jersey), Holstein bull"}, "[4]": {"details": "0.5 mg/ml, Table 5 Total/Avg per bull (A Holstein, B Jersey), Jersey bull"}, "[5]": {"details": "0.5 mg/ml, Table 5 replicates, Bull A (Holstein), Bull B (Jersey), Holstein bull"}, "[6]": {"details": "0.5 mg/ml, Table 5 replicates, Bull A (Holstein), Bull B (Jersey), Jersey bull"}}, "note": "“And” between values parts separate entries of the source, which are not always exact repeats. Identical values can stand only once."}
{"substance": "vitamin B12", "values": [{"measurement": "% Motility", "setting": "sex-sorted sperm cells", "value": 37, "unit": "%"}, {"measurement": "4-2C, Total/Avg", "setting": "[1]; 0.05 mg/ml, Table 4 Total/Avg per bull (A, B)", "value": "66 and 63"}, {"measurement": "4-2C (zygotes at 2 cell to 4 cell transition 48 hours after IVF)", "setting": "[1]; [2]", "value": "20 (2×) and 26 and 18 and 23 and 22"}, {"measurement": "8C % (zygotes having 8 cells 48 hours after IVF)", "setting": "[1]; [2]", "value": "3.4% and 9.5% and 11.7% and 44.4% and 29.3% and 29.0%"}, {"measurement": "8C (zygotes with 8 cells 48 hours after IVF)", "setting": "[1]; [2]", "value": "3 and 9 and 11 and 40 and 27 (2×)"}, {"measurement": "% Clv (percent cleaved 48 hours after IVF)", "setting": "[1]; [2]", "value": "26.4% and 36.8% and 33.0% and 64.4% and 54.3% and 52.7%"}, {"measurement": "Blast % (cultured zygotes resulting in blastocyst formation)", "setting": "[1]; [2]", "value": "1.1% and 2.1% and 4.3% and 21.1% and 16.3% and 22.6%"}, {"measurement": "C1 (expanded, hatching and hatched blastocysts 7 days after IVF)", "setting": "[1]; [2]", "value": "0 (2×) and 1 and 2 and 4 and 5"}, {"measurement": "C1− (blastocysts 7 days after IVF)", "setting": "[1]; [2]", "value": "0 (2×) and 3 (2×) and 4 and 2"}, {"measurement": "C2 (early blastocysts and compact morulas 7 days after IVF)", "setting": "[1]; [2]", "value": "1 (3×) and 13 (2×) and 9"}, {"measurement": "Hatch # (embryos shedding the zona, 8.5 days after IVF)", "setting": "[1]; [2]", "value": "0 and 1 (2×) and 9 and 7 and 8"}, {"measurement": "Hatch % (embryos that shed the zona)", "setting": "[1]; [2]", "value": "0.0% and 50.0% and 25.0% and 47.4% and 46.7% and 38.1%"}, {"measurement": "Total Embs (total number of blastocysts)", "setting": "[1]; [2]", "value": "1 and 2 and 4 and 19 and 15 and 21"}, {"measurement": "4-2C, Total/Avg", "setting": "[1]; [3]", "value": 72}, {"measurement": "8C %, Total/Avg", "setting": "[1]; [3]", "value": 35.1, "unit": "%"}, {"measurement": "8C, Total/Avg", "setting": "[1]; [3]", "value": 99}, {"measurement": "C1−, Total/Avg", "setting": "[1]; [3]", "value": 17}, {"measurement": "C2, Total/Avg", "setting": "[1]; [3]", "value": 18}, {"measurement": "Hatch #, Total/Avg", "setting": "[1]; [3]", "value": 16}, {"measurement": "Total Embs, Total/Avg", "setting": "[1]; [3]", "value": 41}, {"measurement": "4-2C, Total/Avg", "setting": "[1]; [4]", "value": 86}, {"measurement": "8C %, Total/Avg", "setting": "[1]; [4]", "value": 35.4, "unit": "%"}, {"measurement": "8C, Total/Avg", "setting": "[1]; [4]", "value": 104}, {"measurement": "C1−, Total/Avg", "setting": "[1]; [4]", "value": 22}, {"measurement": "C2, Total/Avg", "setting": "[1]; [4]", "value": 13}, {"measurement": "Hatch #, Total/Avg", "setting": "[1]; [4]", "value": 20}, {"measurement": "Total Embs, Total/Avg", "setting": "[1]; [4]", "value": 52}, {"measurement": "4-2C (zygotes at 2 cell to 4 cell transition 48 hours after IVF)", "setting": "[1]; [5]", "value": "25 and 29 and 18"}, {"measurement": "8C % (zygotes having 8 cells 48 hours after IVF)", "setting": "[1]; [5]", "value": "36.2% and 31.6% and 37.6%"}, {"measurement": "8C (zygotes with 8 cells 48 hours after IVF)", "setting": "[1]; [5]", "value": "34 and 30 and 35"}, {"measurement": "% Clv (percent cleaved 48 hours after IVF)", "setting": "[1]; [5]", "value": "62.8% and 62.1% and 57.0%"}, {"measurement": "Blast % (cultured zygotes resulting in blastocyst formation)", "setting": "[1]; [5]", "value": "6.4% and 15.8% and 21.5%"}, {"measurement": "C1 (expanded, hatching and hatched blastocysts 7 days after IVF)", "setting": "[1]; [5]", "value": "0 and 1 and 5"}, {"measurement": "C1− (blastocysts 7 days after IVF)", "setting": "[1]; [5]", "value": "3 and 7 (2×)"}, {"measurement": "C2 (early blastocysts and compact morulas 7 days after IVF)", "setting": "[1]; [5]", "value": "3 and 7 and 8"}, {"measurement": "Hatch # (embryos shedding the zona, 8.5 days after IVF)", "setting": "[1]; [5]", "value": "1 and 4 and 11"}, {"measurement": "Hatch % (embryos that shed the zona)", "setting": "[1]; [5]", "value": "16.7% and 26.7% and 55.0%"}, {"measurement": "Total Embs (total number of blastocysts)", "setting": "[1]; [5]", "value": "6 and 15 and 20"}, {"measurement": "4-2C (zygotes at 2 cell to 4 cell transition 48 hours after IVF)", "setting": "[1]; [6]", "value": "40 and 31 and 15"}, {"measurement": "8C % (zygotes having 8 cells 48 hours after IVF)", "setting": "[1]; [6]", "value": "34.0% and 25.3% and 46.5%"}, {"measurement": "8C (zygotes with 8 cells 48 hours after IVF)", "setting": "[1]; [6]", "value": "34 and 24 and 46"}, {"measurement": "% Clv (percent cleaved 48 hours after IVF)", "setting": "[1]; [6]", "value": "74.0% and 57.9% and 61.6%"}, {"measurement": "Blast % (cultured zygotes resulting in blastocyst formation)", "setting": "[1]; [6]", "value": "11.0% and 24.2% and 18.2%"}, {"measurement": "C1 (expanded, hatching and hatched blastocysts 7 days after IVF)", "setting": "[1]; [6]", "value": "4 and 5 and 8"}, {"measurement": "C1− (blastocysts 7 days after IVF)", "setting": "[1]; [6]", "value": "6 and 11 and 5"}, {"measurement": "C2 (early blastocysts and compact morulas 7 days after IVF)", "setting": "[1]; [6]", "value": "1 and 7 and 5"}, {"measurement": "Hatch # (embryos shedding the zona, 8.5 days after IVF)", "setting": "[1]; [6]", "value": "5 and 6 and 9"}, {"measurement": "Hatch % (embryos that shed the zona)", "setting": "[1]; [6]", "value": "45.5% and 26.1% and 50.0%"}, {"measurement": "Total Embs (total number of blastocysts)", "setting": "[1]; [6]", "value": "11 and 23 and 18"}]}
